According to article PMC3704662, “Synthesis, docking and acetylcholinesterase inhibitory assessment of 2-(2-(4-Benzylpiperazin-1-yl)ethyl)isoindoline-1,3-dione derivatives with potential anti-Alzheimer effects” (DARU Journal of Pharmaceutical Sciences, 2013):

Each molecule was assayed against T1, acetylcholinesterase from electric eel (AChE, E.C. 3.1.1.7, Type V-S) (Electrophorus electricus, UniProt O42275) (assay: biochemical). Details: Ellman test; IC50 ± SEM; 15 min preincubation at 25°C; pH 8.0; acetylthiocholine iodide substrate; triplicate; read-out: IC50 of in vitro acetylcholinesterase assay.
T1 construct: purchased Sigma-Aldrich (Steinheim, Germany) Type V-S (catalogue number not given)
T1 sequence (O42275 24-633): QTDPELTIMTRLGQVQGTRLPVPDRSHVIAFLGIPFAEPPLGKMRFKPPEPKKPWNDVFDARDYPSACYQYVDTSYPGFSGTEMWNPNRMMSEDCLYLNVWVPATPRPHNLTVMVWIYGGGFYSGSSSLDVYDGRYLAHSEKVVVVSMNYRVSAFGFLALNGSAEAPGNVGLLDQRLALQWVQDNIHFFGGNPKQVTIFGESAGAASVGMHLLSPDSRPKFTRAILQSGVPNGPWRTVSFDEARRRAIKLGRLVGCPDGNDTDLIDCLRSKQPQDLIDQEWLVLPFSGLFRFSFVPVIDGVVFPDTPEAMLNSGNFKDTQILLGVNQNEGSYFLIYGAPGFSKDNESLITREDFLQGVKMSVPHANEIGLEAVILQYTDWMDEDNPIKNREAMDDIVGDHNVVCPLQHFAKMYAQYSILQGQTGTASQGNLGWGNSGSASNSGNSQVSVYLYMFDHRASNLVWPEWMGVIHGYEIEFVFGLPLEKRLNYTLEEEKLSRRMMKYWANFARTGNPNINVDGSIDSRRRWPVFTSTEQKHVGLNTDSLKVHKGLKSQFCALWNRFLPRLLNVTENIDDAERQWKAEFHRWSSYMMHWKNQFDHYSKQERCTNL
Description: Lyophilized powder of acetylcholinesterase from electric eel source (AChE, E.C. 3.1.1.7, Type V-S, 1000 unit) was purchased from Sigma-Aldrich (Steinheim, Germany). 5,5’-Dithiobis-(2-nitrobenzoic acid), potassium dihydrogen phosphate, dipotassium hydrogen phosphate, potassium hydroxide, sodium hydrogen carbonate, and acetylthiocholine iodide were purchased from Fluka (Buchs, Switzerland). […] The Ellman test was carried out for assessment of the anticholinesterase activity of intended compounds in vitro. Prior to use, all solutions were adjusted to 25°C. […] The assay solution consisted of a 0.1 M potassium phosphate buffer pH 8.0, with the addition of 0.01 M 5,50-dithio-bis(2-nitrobenzoic acid), 2.5 unit/mL of enzyme solution (AChE, E.C. 3.1.1.7, Type V-S, lyophilized powder, from electric eel) (Sigma Chemical). […] After rapid and immediate mixing the change of absorption was measured at 412 nm. In order to justify non enzymatic reaction assays were carried out with a blank containing all components except AChE.
The blank reading contained 3 ml buffer, 200 μl water, 100 μl DTNB and 20 μl substrate. The reaction rates were calculated, and the percent inhibition of test compounds was determined. Each concentration was analyzed in triplicate, and IC50 values were determined graphically from inhibition curves (log inhibitor concentration vs percent of inhibition).

First: O=C1c2ccccc2C(=O)N1CCN1CCN(Cc2ccccc2Cl)CC1 [Compound 4a, 2-(2-(4-(2-Chlorobenzyl)piperazin-1-yl)ethyl)isoindoline-1,3-dione]
Second: O=C1c2ccccc2C(=O)N1CCN1CCN(Cc2ccccc2F)CC1 [Compound 4d, 2-(2-(4-(2-Fluorobenzyl)piperazin-1-yl)ethyl)isoindoline-1,3-dione]
The IC50 of the first is 25-fold lower: 0.91 ± 0.045 µM for the first, 23 ± 7 µM for the second. The first is the more potent here.

`O=C1c2ccccc2C(=O)N1CCN1CCN(Cc2cccc(Cl)c2)CC1` [Compound 4b, 2-(2-(4-(3-Chlorobenzyl)piperazin-1-yl)ethyl)isoindoline-1,3-dione] and `O=C1c2ccccc2C(=O)N1CCN1CCN(Cc2cccc(F)c2)CC1` [Compound 4e, 2-(2-(4-(3-Fluorobenzyl)piperazin-1-yl)ethyl)isoindoline-1,3-dione] are within error of each other in IC50: 85 ± 12 µM for the first, 74 ± 11 µM for the second.

Going from `O=C1c2ccccc2C(=O)N1CCN1CCN(Cc2ccc(Cl)cc2)CC1` [Compound 4c, 2-(2-(4-(4-Chlorobenzyl)piperazin-1-yl)ethyl)isoindoline-1,3-dione] to `O=C1c2ccccc2C(=O)N1CCN1CCN(Cc2ccc(F)cc2)CC1` [Compound 4f, 2-(2-(4-(4-Fluorobenzyl)piperazin-1-yl)ethyl)isoindoline-1,3-dione], the IC50 rises from 26 ± 5 µM to 42 ± 8 µM (1.6-fold).

Compared with `COc1cccc(CN2CCN(CCN3C(=O)c4ccccc4C3=O)CC2)c1` [Compound 4g, 2-(2-(4-(3-Methoxybenzyl)piperazin-1-yl)ethyl)isoindoline-1,3-dione], `COc1ccc(CN2CCN(CCN3C(=O)c4ccccc4C3=O)CC2)cc1` [Compound 4h, 2-(2-(4-(4-Methoxybenzyl)piperazin-1-yl)ethyl)isoindoline-1,3-dione] is 13-fold higher in IC50: 5.5 ± 0.7 µM for the first, 72 ± 9 µM for the second. The first is the more potent here.

First: O=C1c2ccccc2C(=O)N1CCN1CCN(Cc2ccccc2[N+](=O)[O-])CC1 [Compound 4i, 2-(2-(4-(2-Nitrobenzyl)piperazin-1-yl)ethyl)isoindoline-1,3-dione]
Second: O=C1c2ccccc2C(=O)N1CCN1CCN(Cc2cccc([N+](=O)[O-])c2)CC1 [Compound 4j, 2-(2-(4-(3-Nitrobenzyl)piperazin-1-yl)ethyl)isoindoline-1,3-dione]
The IC50 of the first is 1.6-fold lower: 36 ± 5 µM for the first, 59 ± 6 µM for the second. The first is the more potent here.

First: O=C1c2ccccc2C(=O)N1CCN1CCN(Cc2ccc([N+](=O)[O-])cc2)CC1 [Compound 4k, 2-(2-(4-(4-Nitrobenzyl)piperazin-1-yl)ethyl)isoindoline-1,3-dione]
Second: O=C1c2ccccc2C(=O)N1CCN1CCN(Cc2ccccc2)CC1 [Compound 4l, 2-(2-(4-Benzylpiperazin-1-yl)ethyl)isoindoline-1,3-dione]
The IC50 of the first is 4.4-fold higher: 40 ± 4 µM for the first, 9 ± 2 µM for the second. The second is the more potent here.
